Measured values reported in patent US7402399B2, “Receptor tyrosine kinase signaling pathway analysis for diagnosis and therapy” (Monogram BioSciences, Inc., priority 2003, dated 2008).

Columns and labels:
Her2-Her3 heterodimers = target: T1, Her2-Her3 heterodimers (Homo sapiens, UniProt P04626+P21860); test: eTag assay of cell lysates for Her2-Her3 heterodimers after ligand stimulation; assay type: cell-based; conditions: MCF-7 cells, increasing ligand concentrations (0-100 nM), 10 minutes at 37° C.
T1 construct: endogenous in cells; host or cells: MCF-7
Protocol: Measurements are made using three binding compounds and a cleaving probe as described below.
• 1. Serum-starve breast cancer cell line culture overnight before use. • 2. […] Aspirate culture media, transfer onto ice, and add lysis buffer to lyse cells in situ. • 4. Scrape and transfer lysate to microfuge tube. Incubate on ice for 30 min. Microfuge at 14,000 rpm, 4° C., for 10 min. (Centrifugation is optional.) • 5. Collect supernatants as lysates and aliquot for storage at −80° C. until use. Assay: Assay design: As illustrated diagrammatically in FIG. 4A, Her2-Her3 heterodimers (900) are quantified ratiometrically based on the binding of cleaving probe (902) and binding compounds (904), (906), and (908). A photosensitizer indicated by “PS” is attached to cleaving probe (902) via an avidin-biotin linkage, and binding compounds (904), (906), and (908) are labeled with molecular tags Pro4, Pro10, and Pro 11, respectively. Binding compound (904) is specific for a phosphorylation site on Her3. The total assay volume is 40 ul. The lysate volume is adjusted to 30 ul with lysis buffer. […]
Data Analysis: • 3. Normalize relative fluorescence units (RFU) signal of each molecular tag against CE reference standard A315 (a fluorescein-derivatized deoxyadenosine monophosphate that has known peak position relative to molecular tags from the assay upon electrophoretic separation). • 4. […]

Her1 phosphorylation = test: eTag assay of cell lysates for Her1 receptor phosphorylation; assay type: cell-based, human; conditions: BT-20 cells, increasing EGF concentration
Protocol: Sample preparation was carried out essentially as described in Example 2.
Assay design: A monoclonal antibody specific to the receptor is separately conjugated with either a molecular tag or biotin (that is then linked to a photosensitizer via an avidin bridge), so that the cleaving probe and a binding compound compete to bind to the same epitope in this example. Another binding compound is used that consists of a second anibody recognizing an […] epitope on the receptor, so that a ratiometric signal can be generated as a measure of homodimerization. The signal derived from the second antibody also provides a measure of the total amount of receptor in a sample. The total amount of receptor is determined in a separate assay well. Receptor phosphorylation can be quantified together with either homodimerization or total receptor amount.
Procedure: The assay volume is 40 ul and the general procedure is similar to that of Example 2. Two assay wells, A and B, are set up for each sample to quantify homodimerization and total amount of receptor separately. […]

[1] = tested on: intracellular phosphorylated tyrosine (Her receptor phosphorylation); test: eTag assay of formalin fixed paraffin embedded cell pellets for receptor phosphorylation; assay type: cell-based, human; conditions: 100 nM EGF vs non-stimulated
Protocol: In this example, model fixed tissues made from pelleted cell lines were assayed for the presence of Her receptor dimers. The assay design for heterodimers was essentially the same as that described in FIG. 4A, with exceptions as noted below. That is, four components are employed: (i) a cleaving probe comprising a biotinylated monoclonal antibody conjugated to a cleavage-inducing moiety (in this example, a photosensitizer-derivatized streptavidin, as illustrated in FIG. 3E) and specific for one of the receptors of the dimer, (ii) a monoclonal antibody derivatized with a first molecular tag and specific for the same receptor as the cleaving probe, (iii) a monoclonal antibody derivatized with a second molecular tag and specific for the receptor opposite to that the cleaving probe is specific for, and (iv) a monoclonal antibody derivatized with a third molecular tag and specific for an intracellular phosphorylated tyrosine. The assay design for homodimers was essentially the same as that described in FIG. 1D, with exceptions as noted below.
In each case, model fixed tissues were prepared as follows: cells grown on tissue culture plates were stimulated with either EGF or HRG as described in the prior examples, after which they were washed and removed by scrapping. […]

## EGF: epidermal growth factor, ligand used to stimulate cell lines
Her2-Her3 heterodimers
  quantity of Her2-Her3 heterodimers: essentially no change
Her1 phosphorylation
  quantity of Her1 phosphorylation: increases
[1]; fixed pellets of 22Rv1 cells
  Her receptor phosphorylation: up-regulation
[1]; fixed pellets of MDA-MB468 cells
  intracellular phosphorylation: increases
